Laboratory results reported in patent US20030181401A1, “Insulin secretion promoter” (KYOWA HAKKO KOGYO CO., LTD., priority 2002, published 2003).
“And” between values parts separate entries of the source, which are not always exact repeats. Equal entries are not always repeated.

Tests used:
Type in all cases: in vivo
[1] = test system: STZ-induced diabetic rats (Wistar); assay: Test Example 9: blood glucose in glucose tolerance test, Type I diabetes mellitus model
Experimental: Male 7-week-old Wistar rats (Japan SLC, Inc.) were fed CE-2 (Clea Japan, Inc.) for one week, so as to accustom the rats to the environment.
After 18-hour starvation of the accustomed rats, […] of 50 mM citrate buffer, pH 4.5containing 15 mg of streptozotocin (WAKO Pure Chemical Industries, Inc.; abbreviated as “STZ” hereinafter) was prepared and administered to 25 mg (STZ)/kg body weight from their tail vein. Five days after the STZ administration, the rats were fasted for 18 hours. Blood was taken from puncture in the tail vein to assay blood glucose with a simple-type blood glucose assay apparatus Medisafe Reader GR-101 (Terumo, Co., Ltd.), to select 5 rats (Nos. 1, 3, 4, 5, 8) at mild state of diabetes mellitus with a blood glucose level of 200 mg/dl or less.
An aqueous 2% solution of 2′-fucosyllactose was prepared and administered to the rat No. 1 from the tail vein to 50 mg/kg body weight on a 2′-FL dose basis. 0.9% physiological saline was administered to rats Nos. 3, 4, 5 and 8. Two hours after 2′-FL dosing, an aqueous 40% glucose solution was orally administered to 1 g/kg body weight to the rats for glucose tolerance test. Zero minute and 30, 60, 120, and 240 minutes after glucose loading, blood was taken from a tail vein, to assay blood glucose with Medisafe Reader GR-101 and collect the serum.
12 days after the STZ dosing, the rats were fasted for 18 hours. An aqueous 2% solution of 2′-FL at 50 mg (2′-FL)/kg body weight was administered to rats Nos. 3, 4, 5 and 8 on a 2′-FL dose basis through their tail veins. To the rat No. 1 was administered 0.9% physiological saline. Two hours after 2′-FL dosing, an aqueous 40% glucose solution was orally administered to 1 g (glucose)/kg body weight to the rats, for glucose tolerance test. Zero minute and 30, 60, 120, and 240 minutes after glucose loading, blood was taken from a tail vein, to assay blood glucose with Medisafe Reader GR-101 and collect the serum.

[2] = test system: ICR mice; assay: Test Example 8: serum insulin in glucose tolerance test after single oral 2′-FL dose
Experimental: Groups of male 8-week-old ICR mice (Japan SLC, Inc.) each consisting of 6 mice were fed CE-2 (Clea Japan, Inc.) for one week, so as to accustom the animals to the environment.
Then, the mice accustomed were fasted for 18 hours. An aqueous 2% solution of 2′-FL was orally administered to the mice to 100 mg (2′-FL)/kg body weight, while 0.9% saline was administered orally to the control group. Two hours after the 2′-FL dosing, an aqueous 40% glucose solution was orally administered to 2 g (glucose)/kg body weight to the mice, for glucose tolerance test. […] Blood glucose was assayed with a simple-type blood glucose assay apparatus Medisafe Reader GR-101 (Terumo, Co., Ltd.), while the serum was collected.
Insulin in the serum recovered was assayed by enzyme immunoassay using Morinaga ultra-sensitive rat insulin assay kit (Morinaga Biochemical Research Institute, Co., Ltd.) described below. 15 μl of the serum was divided in the wells of an antibody-immobilized plate, where 85 μl of the diluent attached to the kit was divided therein, for reaction at 4° C. for 2 hours. […] The absorbance of each well at 450 nm (principal wave length) and 655 nm (sub wave length) was measured with BioRad Model 3550 microplate reader (BioRad Laboratories, Inc.). […] Based on the prepared standard curve, the serum insulin concentration corresponding to the absorbance during the reaction with the serum was determined.

[3] = test system: ICR mice; assay: Test Example 6: serum insulin after intravenous saccharide with simultaneous oral glucose loading
Experimental: Groups of male 9-week-old ICR mice (Japan SLC, Inc.) each consisting of 7 mice were fed CE-2 (Clea Japan, Inc.) for one week, so as to accustom the animals to the environment. Then, the mice were fasted for 18 hours.
An aqueous 10% solution of 2′-FL or NeuAc was intravenously administered to the mice to 500 mg (saccharide)/kg body weight, while an aqueous 40% glucose solution was orally administered simultaneously to 2 g (glucose)/kg body weight, to the mice. To the control group, physiological saline was administered intravenously, while glucose was orally administered simultaneously to 2 g/kg body weight. Zero minute and 30 minutes after glucose loading, blood was taken from a tail vein. […] Blood was centrifuged (4° C., 10000 rpm, 10 minutes), to obtain serum.
Insulin in the serum recovered was assayed by enzyme immunoassay using Lebis Insulin kit (for mice-T) (Shibayagi, Co., Ltd.) in the same manner as in the Test Example 2.

2′-fucosyllactose [2′-FL]
increase of blood glucose level (in words) ([1]; STZ-induced diabetic rats, glucose loading 2 hours after intravenous dosing): suppressed | Blood glucose level after glucose loading, 0 minute ([1]; individual STZ rats Nos. 1, 3, 4, 5, 8, 50 mg/kg intravenous two hours before glucose 1 g/kg oral, 0 minute, 50 mg/kg): 135 mg/dL and 186 mg/dL and 97 mg/dL and 134 mg/dL and 138 mg/dL | Blood glucose level after glucose loading, 30 minutes ([1]; individual STZ rats Nos. 1, 3, 4, 5, 8, 50 mg/kg intravenous two hours before glucose 1 g/kg oral, 30 minutes, 50 mg/kg): 167 mg/dL and 273 mg/dL and 237 mg/dL and 162 mg/dL and 152 mg/dL | Blood glucose level after glucose loading, 60 minutes ([1]; individual STZ rats Nos. 1, 3, 4, 5, 8, 50 mg/kg intravenous two hours before glucose 1 g/kg oral, 60 minutes, 50 mg/kg): 172 mg/dL and 355 mg/dL and 253 mg/dL and 154 mg/dL and 158 mg/dL | Blood glucose level after glucose loading, 120 minutes ([1]; individual STZ rats Nos. 1, 3, 4, 5, 8, 50 mg/kg intravenous two hours before glucose 1 g/kg oral, 120 minutes, 50 mg/kg): 181 mg/dL and 342 mg/dL and 224 mg/dL and 161 mg/dL and 136 mg/dL | Blood glucose level after glucose loading, 240 minutes ([1]; individual STZ rats Nos. 1, 3, 4, 5, 8, 50 mg/kg intravenous two hours before glucose 1 g/kg oral, 240 minutes, 50 mg/kg): 146 mg/dl and 328 mg/dl and 139 mg/dl (2×) and 50 mg/dl | Blood glucose level after glucose loading, −120 minutes ([1]; individual STZ rats Nos. 1, 3, 4, 5, 8, 50 mg/kg intravenous two hours before glucose 1 g/kg oral, −120 minutes, 50 mg/kg): 108 mg/dL and 197 mg/dL and 122 mg/dL and 121 mg/dL and 117 mg/dL | Serum insulin concentration after glucose loading ([2]; ICR mice fasted 18 hours, 100 mg/kg single oral dose two hours before glucose 2 g/kg oral, 60 minutes, mean ± SD): 82.6 ± 91.7 pg/mL | serum insulin concentration after glucose loading compared with the control group (in words) ([2]; ICR mice, single oral dosing 120 minutes before glucose dosing): increased | Serum insulin concentration after glucose loading, 30 minutes ([3]; ICR mice fasted 18 hours, 500 mg/kg intravenous with simultaneous glucose 2 g/kg oral, 30 minutes, mean ± SD): 192.3 ± 57.4 pg/mL | Serum insulin concentration after glucose loading, 120 minutes ([3]; ICR mice fasted 18 hours, 500 mg/kg intravenous with simultaneous glucose 2 g/kg oral, 120 minutes, mean ± SD): 2090.7 ± 533.1 pg/mL | serum insulin concentration after glucose loading compared with the control group (in words) ([3]; ICR mice, intravenous dosing): increased
